Patent US8138183B2, “Morpholino pyrimidine derivatives used in diseases linked to mTOR kinase and/or PI3K” (AstraZeneca AB, priority 2007, dated 2012)

Target: recombinant mTOR (Homo sapiens, UniProt P42345)
Assay: In Vitro mTOR Kinase Assay, Test (a)(i) (AlphaScreen)
Assay type: biochemical
Settings: read-out: IC50 versus mTOR kinase
Method: (a)(i) In Vitro mTOR Kinase Assay
The assay used AlphaScreen technology (Gray et al., Analytical Biochemistry, 2003, 313: 234-245) to determine the ability of test compounds to inhibit phosphorylation by recombinant mTOR.
The HEK293 FLAG-tagged mTOR (1362-2549) stable cell line was routinely maintained at 37° C. with 5% CO2 up to a confluency of 70-90% in Dulbecco's modified Eagle's growth medium (DMEM; Invitrogen Limited, Paisley, UK Catalogue No. 41966-029) containing 10% heat-inactivated foetal calf serum (FCS; Sigma, Poole, Dorset, UK, Catalogue No. F0392), 1% L-glutamine (Gibco, Catalogue No. 25030-024) and 2 mg/ml Geneticin (G418 sulfate; Invitrogen Limited, UK Catalogue No. 10131-027). […]
Each reaction was stopped by the addition of 10 μl of a mixture of EDTA (50 mM), bovine serum albumin (BSA; 0.5 mg/mL) and Tris-HCl pH7.4 buffer (50 mM) containing p70 S6 Kinase (T389) 1A5 Monoclonal Antibody (Cell Signalling Technology, Catalogue No. 9206B) and AlphaScreen Streptavidin donor and Protein A acceptor beads (200 ng; Perkin Elmer, Catalogue No. 6760002B and 6760137R respectively) were added and the assay plates were left for about 20 hours at room temperature in the dark. The resultant signals arising from laser light excitation at 680 nm were read using a Packard Envision instrument. […]
mTOR enzyme inhibition for a given test compound was expressed as an IC50 value.

Chain of recombinant mTOR (P42345 1362-2549): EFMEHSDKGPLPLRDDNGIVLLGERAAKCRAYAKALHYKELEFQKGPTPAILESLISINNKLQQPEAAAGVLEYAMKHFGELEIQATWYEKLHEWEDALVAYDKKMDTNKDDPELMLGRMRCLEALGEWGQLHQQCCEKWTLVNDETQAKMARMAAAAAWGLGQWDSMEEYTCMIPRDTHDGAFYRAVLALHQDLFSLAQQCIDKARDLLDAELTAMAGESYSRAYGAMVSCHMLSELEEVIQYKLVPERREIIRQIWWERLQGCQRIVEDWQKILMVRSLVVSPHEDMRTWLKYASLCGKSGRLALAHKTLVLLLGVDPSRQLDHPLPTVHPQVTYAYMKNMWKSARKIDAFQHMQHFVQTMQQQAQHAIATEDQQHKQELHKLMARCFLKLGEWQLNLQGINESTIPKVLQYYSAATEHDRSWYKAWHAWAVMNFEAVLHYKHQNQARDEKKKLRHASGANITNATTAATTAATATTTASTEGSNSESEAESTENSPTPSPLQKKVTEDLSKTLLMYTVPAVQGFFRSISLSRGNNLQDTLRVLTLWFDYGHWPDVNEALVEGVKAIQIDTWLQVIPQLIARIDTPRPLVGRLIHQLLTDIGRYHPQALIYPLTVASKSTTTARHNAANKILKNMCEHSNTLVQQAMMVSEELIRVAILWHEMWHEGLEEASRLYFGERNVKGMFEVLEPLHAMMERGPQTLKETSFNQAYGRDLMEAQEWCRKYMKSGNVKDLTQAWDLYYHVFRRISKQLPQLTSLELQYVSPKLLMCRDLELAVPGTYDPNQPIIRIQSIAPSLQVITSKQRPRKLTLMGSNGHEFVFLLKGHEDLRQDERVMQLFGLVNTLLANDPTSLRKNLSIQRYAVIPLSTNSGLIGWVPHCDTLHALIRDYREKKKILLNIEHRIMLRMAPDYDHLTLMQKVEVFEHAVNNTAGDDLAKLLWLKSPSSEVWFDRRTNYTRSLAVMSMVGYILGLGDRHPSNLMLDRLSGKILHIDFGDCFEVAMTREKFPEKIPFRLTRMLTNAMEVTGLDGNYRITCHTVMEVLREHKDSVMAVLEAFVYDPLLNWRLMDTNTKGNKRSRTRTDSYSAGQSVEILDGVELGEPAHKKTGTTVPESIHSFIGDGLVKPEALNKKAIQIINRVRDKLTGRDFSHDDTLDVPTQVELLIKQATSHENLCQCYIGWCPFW

C[C@H]1COCCN1c1cc(CS(C)(=O)=O)nc(-c2ccc(NC(=S)Nc3ccccc3)cc2)n1 [Example 1b, 1-[4-[4-[(3S)-3-methylmorpholin-4-yl]-6-(methylsulfonylmethyl)pyrimidin-2-yl]phenyl]-3-phenyl-thiourea]
IC50: 550 nM
